Data taken from patent publication US10829796B2, “Bacteria identification and antimicrobial susceptibility test” (priority 2015, dated 2020).

System: bacteria in clinical bovine mastitis milk samples
Experiment: Combined bacteria identification and antimicrobial susceptibility test (colour of wells, MIC) on clinical bovine mastitis milk samples
Format: cell-based
Protocol: Clinical bovine mastitis milk samples were collected by a vet clinic in South Island, New Zealand. Samples were stored in the freezer for several months and shipped frozen to the testing facility. In this Example, the term “clinical” means that dairy cows had clinical symptoms of an udder infection e.g. cow behaved unusual, milk clots, swollen udder among other typical symptoms. Testing was executed in microwell plate comprising of 24 wells (3×8 wells).
In addition, 20 ul of clinical mastitis sample was added to each well with a laboratory pipette.
(§1) Abbreviations • 1. 80 ul GC+10 ul Tell: 80 ul Giolitti Cantoni base broth+10 ul Tellurite solution (1%); • 2. 80 ul TSB/Esc/Fer Cit: 80 ul Tryptic soy broth containing 0.25% Esculin and 0.125% Ammonium Ferric Citrate; • 3. 80 ul TSB/Esc/Fer Cit+10 ul Genta: 80 ul Tryptic soy broth containing 0.25% Esculin and 0.125% Ammonium Ferric Citrate+10 ul of Gentamycin solution 10 mg/ml; • 4. 80 ul McC/PR25: 80 ul MacConkey broth (single strength) containing 0.0125% phenol red; and • 5. 80 ul TSB/PR25: 80 ul Tryptic soy broth containing 0.0125% phenol red. Bacteria Identification
Columns A to C and rows 1 and 2 were used for bacteria identification. A1: coagulase positive Staph; A2: Staphylococci; B1: Strep group D; B2: Strep group D; C1: general enrichment media (gram+ and gram-bacteria); C2: coliform bacteria.
Column A3 to A8: serial dilution of benzyl penicillin as potassium. Column B3 to B8: serial dilution of ceftiofur as hydrochloride. Column C3 to C8: serial dilution of cloxacillin as sodium. Antibiotic concentrations are listed as free form ranging between 4 ug/ml to 0.05 ug/ml.
Minimum inhibitory substance concentration (MIC) is here defined as the concentration if a colour change occurs between two wells (one well remains red with drug concentration 1, the other one yellow with drug concentration 2, whereas drug concentration 1 is larger than drug concentration 2) then the MIC is the value of drug concentration 1.
Table 21 indicates the microwell plate configuration #1; Drugs: Benzylpenicillin as potassium; Cloxacillin as sodium; Ceftiofur as hydrochloride; Drug concentration in each well (A3 to C8) is based on 80 μl composition+10 μl drug solution+20 μl clinical mastitis milk sample and equivalent to listed drug concentration in μg/ml; 20 ul of clinical bovine mastitis milk sample was added to each well (A1 to C8).
In addition, each well received one drop of clinical sample from a transfer pipette which was on average about 35 mg. This was determined through weighing the well plate prior and after the addition of clinical mastitis samples. This weight was then divided by 24.
as §1, with “•” for “Abbreviations •”, “red.” for “red. Bacteria Identification”
Columns A to C and rows 1 and 2 were used for bacteria identification. A1: coagulase positive Staph; A2: Staphylococci; B1: Strep Group D; B2: -; C1: general enrichment media (gram+ and gram-); C2: coliform bacteria.
Column A3 to A8: serial dilution of benzyl penicillin as potassium. Drug concentrations given as free form ranging between 4 ug/ml to 0.05 ug/ml. Column B3 to B8: serial dilution of ceftiofur as hydrochloride. Drug concentrations given as free form ranging between 4 ug/ml to 0.05 ug/ml. Column C3 to C8: serial dilution of cloxacillin as sodium. Drug concentrations given as free form ranging between 4 ug/ml to 0.05 ug/ml.

For `Cc1onc(-c2ccccc2Cl)c1C(=O)N[C@@H]1C(=O)N2[C@@H]1SC(C)(C)[C@@H]2C(=O)O` [cloxacillin], the “Colour of media in each well” value (ID 5 to 8, T = 0 h (prior incubation, reference), plate configuration #2, drug 1 μg/ml) was “red”, the “Colour of media in each well” value (ID 5 to 8, T = 0 h (prior incubation, reference), plate configuration #2, drug 2 μg/ml) was “red” and the “Colour of media in each well” value (ID 5 to 8, T = 0 h (prior incubation, reference), plate configuration #2, drug 4 μg/ml) was “red”. For the same compound, the “Colour of media in each well” value (ID 6, T = 23h, 37° C., plate configuration #2, drug 0.05 μg/ml (Table 31)) was “yellow”, the “Colour of media in each well” value (ID 6, T = 23h, 37° C., plate configuration #2, drug 0.1 μg/ml (Table 31)) was “yellow” and the “Colour of media in each well” value (ID 6, T = 23h, 37° C., plate configuration #2, drug 0.5 μg/ml (Table 31)) was “yellow”. The “Colour of media in each well” value (ID 6, T = 23h, 37° C., plate configuration #2, drug 1 μg/ml (Table 31)) was “yellow”, the “Colour of media in each well” value (ID 6, T = 23h, 37° C., plate configuration #2, drug 2 μg/ml (Table 31)) was “yellow” and the “Colour of media in each well” value (ID 6, T = 23h, 37° C., plate configuration #2, drug 4 μg/ml (Table 31)) was “yellow”. For the same compound, the “Colour of media in each well” value (ID 6, T~7 h, 37° C., plate configuration #2, Table 35, drug 0.05 μg/ml) was “yellow”, the “Colour of media in each well” value (ID 6, T~7 h, 37° C., plate configuration #2, Table 35, drug 0.1 μg/ml) was “yellow” and the “Colour of media in each well” value (ID 6, T~7 h, 37° C., plate configuration #2, Table 35, drug 0.5 μg/ml) was “yellow”. The “Colour of media in each well” value (ID 6, T~7 h, 37° C., plate configuration #2, Table 35, drug 1 μg/ml) was “yellow”, the “Colour of media in each well” value (ID 6, T~7 h, 37° C., plate configuration #2, Table 35, drug 2 μg/ml) was “yellow” and the “Colour of media in each well” value (ID 6, T~7 h, 37° C., plate configuration #2, Table 35, drug 4 μg/ml) was “yellow”. For the same compound, the “Colour of media in each well” value (ID 6, T~11 h, 37° C., plate configuration #2, Table 35, drug 0.05 μg/ml) was “yellow”, the “Colour of media in each well” value (ID 6, T~11 h, 37° C., plate configuration #2, Table 35, drug 0.1 μg/ml) was “yellow” and the “Colour of media in each well” value (ID 6, T~11 h, 37° C., plate configuration #2, Table 35, drug 0.5 μg/ml) was “yellow”. For the same compound, the “Colour of media in each well” value (ID 6, T~11 h, 37° C., plate configuration #2, Table 35, drug 1 μg/ml) was “yellow”, the “Colour of media in each well” value (ID 6, T~11 h, 37° C., plate configuration #2, Table 35, drug 2 μg/ml) was “yellow” and the “Colour of media in each well” value (ID 6, T~11 h, 37° C., plate configuration #2, Table 35, drug 4 μg/ml) was “yellow”. For the same compound, the “Colour of media in each well” value (ID 6, T~23 h, 37° C., plate configuration #2, Table 35, drug 0.05 μg/ml) was “yellow”, the “Colour of media in each well” value (ID 6, T~23 h, 37° C., plate configuration #2, Table 35, drug 0.1 μg/ml) was “yellow” and the “Colour of media in each well” value (ID 6, T~23 h, 37° C., plate configuration #2, Table 35, drug 0.5 μg/ml) was “yellow”. The “Colour of media in each well” value (ID 6, T~23 h, 37° C., plate configuration #2, Table 35, drug 1 μg/ml) was “yellow”, the “Colour of media in each well” value (ID 6, T~23 h, 37° C., plate configuration #2, Table 35, drug 2 μg/ml) was “yellow” and the “Colour of media in each well” value (ID 6, T~23 h, 37° C., plate configuration #2, Table 35, drug 4 μg/ml) was “yellow”. For the same compound, the “Colour of media in each well” value (ID 7, T = 23h, 37° C., plate configuration #2, drug 0.05 μg/ml) was “yellow”, the “Colour of media in each well” value (ID 7, T = 23h, 37° C., plate configuration #2, drug 0.1 μg/ml) was “yellow” and the “Colour of media in each well” value (ID 7, T = 23h, 37° C., plate configuration #2, drug 0.5 μg/ml) was “red”. The “Colour of media in each well” value (ID 7, T = 23h, 37° C., plate configuration #2, drug 1 μg/ml) was “red”, the “Colour of media in each well” value (ID 7, T = 23h, 37° C., plate configuration #2, drug 2 μg/ml) was “red” and the “Colour of media in each well” value (ID 7, T = 23h, 37° C., plate configuration #2, drug 4 μg/ml) was “red”. The “Colour of media in each well” value (ID 8, T = 23 h, 37° C., plate configuration #2, drug 0.05 μg/ml) was “yellow”, the “Colour of media in each well” value (ID 8, T = 23 h, 37° C., plate configuration #2, drug 0.1 μg/ml) was “yellow” and the “Colour of media in each well” value (ID 8, T = 23 h, 37° C., plate configuration #2, drug 0.5 μg/ml) was “red”. For the same compound, the “Colour of media in each well” value (ID 8, T = 23 h, 37° C., plate configuration #2, drug 1 μg/ml) was “red”, the “Colour of media in each well” value (ID 8, T = 23 h, 37° C., plate configuration #2, drug 2 μg/ml) was “red” and the “Colour of media in each well” value (ID 8, T = 23 h, 37° C., plate configuration #2, drug 4 μg/ml) was “red”. For the same compound, the “Colour of media in each well” value (Table 24, sample ID 2, 22 hours at 37° C., plate configuration #1, row 3 of serial dilution 4 ug/ml to 0.05 ug/ml) was “red”, the “Colour of media in each well” value (Table 24, sample ID 2, 22 hours at 37° C., plate configuration #1, row 4 of serial dilution 4 ug/ml to 0.05 ug/ml) was “red” and the “Colour of media in each well” value (Table 24, sample ID 2, 22 hours at 37° C., plate configuration #1, row 5 of serial dilution 4 ug/ml to 0.05 ug/ml) was “red”. The “Colour of media in each well” value (Table 24, sample ID 2, 22 hours at 37° C., plate configuration #1, row 6 of serial dilution 4 ug/ml to 0.05 ug/ml) was “red”, the “Colour of media in each well” value (Table 24, sample ID 2, 22 hours at 37° C., plate configuration #1, row 7 of serial dilution 4 ug/ml to 0.05 ug/ml) was “yellow” and the “Colour of media in each well” value (Table 24, sample ID 2, 22 hours at 37° C., plate configuration #1, row 8 of serial dilution 4 ug/ml to 0.05 ug/ml) was “yellow”. The MIC (clinical sample ID 1 (streptococci group D), 37° C. for 22 hours, plate configuration #1) was 0.5 µg/mL, the MIC (clinical sample ID 2 (streptococci group D, also coagulase positive Staph), 37° C. for 22 hours, plate configuration #1) was 0.5 µg/mL and the MIC (clinical sample ID 4 (coagulase positive Staph), 37° C. for 22 hours, plate configuration #1) was 0.5 µg/mL. It also gave an MIC (clinical sample ID 5 (streptococci group D), 37° C. for 23 hours, plate configuration #2) of 0.5 µg/mL, an MIC (clinical sample ID 7 (coagulase positive Staph), 37° C. for 23 hours, plate configuration #2) of 0.5 µg/mL and an MIC (clinical sample ID 8 (coagulase negative Staph and Streptococci group D), 37° C. for 23 hours, plate configuration #2) of 0.5 µg/mL.
